{"source": "patent US20210395239A1", "about": "(Hoffmann-La Roche Inc., priority 2018, published 2021)"}
{"target": "T1, human TLR8 (Homo sapiens, UniProt Q9NR97)", "T1 construct": "host or cells: HEK293 (HEK-Blue hTLR8)", "T1 sequence (Q9NR97 27-1041)": "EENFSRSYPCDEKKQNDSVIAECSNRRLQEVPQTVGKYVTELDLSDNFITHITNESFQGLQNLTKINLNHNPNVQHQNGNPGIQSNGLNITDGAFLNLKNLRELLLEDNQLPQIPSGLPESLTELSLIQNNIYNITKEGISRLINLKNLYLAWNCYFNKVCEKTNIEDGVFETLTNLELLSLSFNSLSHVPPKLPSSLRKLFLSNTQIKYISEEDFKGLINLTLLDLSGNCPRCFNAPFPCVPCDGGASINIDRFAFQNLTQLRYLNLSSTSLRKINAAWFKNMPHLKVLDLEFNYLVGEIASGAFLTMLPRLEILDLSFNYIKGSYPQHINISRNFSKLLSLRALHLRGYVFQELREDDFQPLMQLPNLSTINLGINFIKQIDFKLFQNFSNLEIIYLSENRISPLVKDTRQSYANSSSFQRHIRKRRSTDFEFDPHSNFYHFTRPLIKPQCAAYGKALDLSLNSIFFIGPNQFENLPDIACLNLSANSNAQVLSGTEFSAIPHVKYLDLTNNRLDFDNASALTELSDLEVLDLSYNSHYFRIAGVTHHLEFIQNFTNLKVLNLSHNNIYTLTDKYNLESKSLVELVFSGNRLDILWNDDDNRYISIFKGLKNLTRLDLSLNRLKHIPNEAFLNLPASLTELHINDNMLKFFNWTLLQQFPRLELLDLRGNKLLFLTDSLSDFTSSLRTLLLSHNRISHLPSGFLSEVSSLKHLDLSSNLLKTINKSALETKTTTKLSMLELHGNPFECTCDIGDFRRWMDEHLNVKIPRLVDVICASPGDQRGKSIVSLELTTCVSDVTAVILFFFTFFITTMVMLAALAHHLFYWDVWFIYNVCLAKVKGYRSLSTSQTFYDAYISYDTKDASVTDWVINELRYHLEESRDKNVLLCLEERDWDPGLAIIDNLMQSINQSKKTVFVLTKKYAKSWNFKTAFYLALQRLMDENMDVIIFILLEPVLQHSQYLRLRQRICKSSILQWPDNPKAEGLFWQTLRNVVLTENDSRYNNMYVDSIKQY", "assay": "HEK293-Blue-hTLR-8 cells assay (SEAP reporter, R848 stimulation)", "assay_type": "cell-based", "details": "HEK293-Blue-hTLR8 cells, R848, 20 hrs; read-out: HEK/hTLR8 IC50", "source_text": "HEK293-Blue-hTLR-8 Cells Assay:\nA stable HEK293-Blue-hTLR-8 cell line was purchased from InvivoGen (Cat. #: hkb-ht1r8, San Diego, Calif., USA). These cells were originally designed for studying the stimulation of human TLR8 by monitoring the activation of NF-κB. A SEAP (secreted embryonic alkaline phosphatase) reporter gene was placed under the control of the IFN-β minimal promoter fused to five NF-κB and AP-1-binding sites. The SEAP was induced by activating NF-κB and AP-1 via stimulating HEK-Blue hTLR8 cells with TLR8 ligands. Therefore the reporter expression was declined by TLR8 antagonist under the stimulation of a ligand, such as R848, for incubation of 20 hrs. The cell culture supernatant SEAP reporter activity was determined using QUANTI-Blue™ kit (Cat. #: rep-qb1, Invivogen, San Diego, Ca, USA) at a wavelength of 640 nm, a detection medium that turns purple or blue in the presence of alkaline phosphatase.\nHEK293-Blue-hTLR8 cells were incubated at a density of 250,000˜450,000 cells/mL in a volume of 170 μL in a 96-well plate in Dulbecco's Modified Eagle's medium (DMEM) containing 4.5 g/L glucose, 50 U/mL penicillin, […], […], 2 mM L-glutamine, 10% (v/v) heat-inactivated fetal bovine serum with addition of 20 μL test compound in a serial dilution in the presence of final DMSO at 1% and 10 μL of 60 uM R848 in above DMEM, perform incubation under 37° C. in a CO2 incubator for 20 hrs. Then 20 μL of the supernatant from each well was incubated with 180 μL Quanti-blue substrate solution at 37° C. for 2 hrs and the absorbance was read at 620˜655 nm using a spectrophotometer. The signaling pathway that TLR8 activation leads to downstream NF-κB activation has been widely accepted, and therefore similar reporter assay was modified for evaluating TLR8 antagonist.", "units": {"IC50": "nM"}}
{"smiles": "Cc1ccc(N2C[C@H](CN3CCN(c4ccnc(N5CCN[C@H](C)C5)n4)CC3)O[C@H](C)C2)c2nccnc12", "note": "[Example 128, (2R,6S)-2-methyl-6-[[4-[2-[(3R)-3-methylpiperazin-1-yl]pyrimidin-4-yl]piperazin-1-yl]methyl]-4-(8-methylquinoxalin-5-yl)morpholine]", "IC50": 12}
{"smiles": "[2H]c1ccc2c(N3C[C@H](CN4CCN(c5nc(C)cc(N6CC(N)C6)n5)CC4)O[C@H](C)C3)ccc(C#N)c2n1", "note": "[Example 136, 5-[(2S,6R)-2-[[4-[4-(3-aminoazetidin-1-yl)-6-methyl-pyrimidin-2-yl]piperazin-1-yl]methyl]-6-methyl-morpholin-4-yl]-2-deuterio-quinoline-8-carbonitrile]", "IC50": 1}
{"smiles": "CO[C@H]1CN(c2nccc(N3CCN(C[C@H]4CN(c5ccc(C#N)c6nccnc56)C[C@@H](C)O4)CC3)n2)C[C@@H]1N", "note": "[Example 99, 8-[(2S,6R)-2-[[4-[2-[(3S,4S)-3-amino-4-methoxy-pyrrolidin-1-yl]pyrimidin-4-yl]piperazin-1-yl]methyl]-6-methyl-morpholin-4-yl]quinoxaline-5-carbonitrile]", "IC50": 1}
{"smiles": "CO[C@@H]1CN(c2nccc(N3CCN(C[C@H]4CN(c5ccc(C#N)c6ncccc56)C[C@@H](C)O4)CC3)n2)C[C@@H]1N", "note": "[Example 92, 5-[(2S,6R)-2-[[4-[2-[(3S,4R)-3-amino-4-methoxy-pyrrolidin-1-yl]pyrimidin-4-yl]piperazin-1-yl]methyl]-6-methyl-morpholin-4-yl]quinoline-8-carbonitrile]", "IC50": 2}
{"smiles": "C[C@@H]1CN(c2ccc(C#N)c3nccnc23)C[C@H](CN2CCN(c3ccnc(N4CC[C@@H](N)[C@H](F)C4)n3)CC2)O1", "note": "[Example 113, 8-[(2S,6R)-2-[[4-[2-[(3R,4R)-4-amino-3-fluoro-1-piperidyl]pyrimidin-4-yl]piperazin-1-yl]methyl]-6-methyl-morpholin-4-yl]quinoxaline-5-carbonitrile]", "IC50": 1}
{"smiles": "C[C@@H]1CN(c2ccc(C#N)c3nccnc23)C[C@H](CN2CCN(c3nccc(N4C[C@@H](N)[C@H](F)C4)n3)CC2)O1", "note": "[Example 119, 8-[(2S,6R)-2-[[4-[4-[(3R,4R)-3-amino-4-fluoro-pyrrolidin-1-yl]pyrimidin-2-yl]piperazin-1-yl]methyl]-6-methyl-morpholin-4-yl]quinoxaline-5-carbonitrile]", "IC50": 1}
{"smiles": "C[C@@H]1CN(c2ccc(C#N)n3ncc(F)c23)C[C@H](CN2CC(c3ccc(N4C[C@@H]5C[C@H]4CN5)nc3)C2)O1", "note": "[Example 165, 4-[(2S,6R)-2-[[3-[6-[(1S,4S)-2,5-diazabicyclo[2.2.1]heptan-2-yl]-3-pyridyl]azetidin-1-yl]methyl]-6-methyl-morpholin-4-yl]-3-fluoro-pyrazolo[1,5-a]pyridine-7-carbonitrile]", "IC50": 92}
{"smiles": "CO[C@H]1CN(c2ccnc(N3CCN(C[C@H]4CN(c5ccc(C#N)c6ncccc56)C[C@@H](C)O4)CC3)n2)C[C@@H]1N", "note": "[Example 97, 5-[(2S,6R)-2-[[4-[4-[(3S,4S)-3-amino-4-methoxy-pyrrolidin-1-yl]pyrimidin-2-yl]piperazin-1-yl]methyl]-6-methyl-morpholin-4-yl]quinoline-8-carbonitrile]", "IC50": 1}
{"smiles": "[2H]c1ccc2c(N3C[C@H](CN4CCN(c5nc(C)cc(N6CC(C)(N)C6)n5)CC4)O[C@H](C)C3)ccc(C#N)c2n1", "note": "[Example 135, 5-[(2S,6R)-2-[[4-[4-(3-amino-3-methyl-azetidin-1-yl)-6-methyl-pyrimidin-2-yl]piperazin-1-yl]methyl]-6-methyl-morpholin-4-yl]-2-deuterio-quinoline-8-carbonitrile]", "IC50": 1}
{"smiles": "C[C@@H]1CN(c2ccc(C#N)c3ncccc23)C[C@H](CN2CC(c3cccc(N4CCNCC4)c3)C2)O1", "note": "[Example 4, 5-[(2R,6S)-2-methyl-6-[[3-(3-piperazin-1-ylphenyl)azetidin-1-yl]methyl]morpholin-4-yl]quinoline-8-carbonitrile]", "IC50": 17}
{"smiles": "[2H]c1ccc2c(N3C[C@H](CN4CCN(c5ncc(N6CC(C)(N)C6)cc5C)CC4)O[C@H](C)C3)ccc(C#N)c2n1", "note": "[Example 139, 5-[(2S,6R)-2-[[4-[5-(3-amino-3-methyl-azetidin-1-yl)-3-methyl-2-pyridyl]piperazin-1-yl]methyl]-6-methyl-morpholin-4-yl]-2-deuterio-quinoline-8-carbonitrile]", "IC50": 13}
{"smiles": "Cc1ccc(N2C[C@H](CN3CCN(c4ccnc(N5CC(N)C5)n4)CC3)O[C@H](C)C2)c2nccnc12", "note": "[Example 130, 1-[4-[4-[[(2S,6R)-6-methyl-4-(8-methylquinoxalin-5-yl)morpholin-2-yl]methyl]piperazin-1-yl]pyrimidin-2-yl]azetidin-3-amine]", "IC50": 8}
{"smiles": "[2H]c1ccc2c(N3C[C@H](CN4CCN(c5ccc(N6CC7(CN(C)C7)C6)nc5)CC4)O[C@H](C)C3)ccc(C#N)c2n1", "note": "[Example 161, 2-deuterio-5-[(2R,6S)-2-methyl-6-[[4-[6-(6-methyl-2,6-diazaspiro[3.3]heptan-2-yl)-3-pyridyl]piperazin-1-yl]methyl]morpholin-4-yl]quinoline-8-carbonitrile]", "IC50": 8}
{"smiles": "[2H]c1ccc2c(N3C[C@H](CN4CC(c5cnc(N6C[C@@H](N)[C@H](OC)C6)cc5C)C4)O[C@H](C)C3)ccc(C#N)c2n1", "note": "[Example 146, 5-[(2S,6R)-2-[[3-[6-[(3R,4R)-3-amino-4-methoxy-pyrrolidin-1-yl]-4-methyl-3-pyridyl]azetidin-1-yl]methyl]-6-methyl-morpholin-4-yl]-2-deuterio-quinoline-8-carbonitrile]", "IC50": 14}
{"smiles": "[2H]c1nc2c(C#N)ccc(N3C[C@H](CN4CCN(c5nc(C)cc(N6CC(N)C6)n5)CC4)O[C@H](C)C3)c2nc1[2H]", "note": "[Example 124, 8-[(2S,6R)-2-[[4-[4-(3-aminoazetidin-1-yl)-6-methyl-pyrimidin-2-yl]piperazin-1-yl]methyl]-6-methyl-morpholin-4-yl]-2,3-dideuterio-quinoxaline-5-carbonitrile]", "IC50": 1}
{"smiles": "[2H]c1ccc2c(N3C[C@H](CN4CCN(c5ncc(N6C[C@@H](N)[C@H](OC)C6)cc5C)CC4)O[C@H](C)C3)ccc(C#N)c2n1", "note": "[Example 142, 5-[(2S,6R)-2-[[4-[5-[(3R,4R)-3-amino-4-methoxy-pyrrolidin-1-yl]-3-methyl-2-pyridyl]piperazin-1-yl]methyl]-6-methyl-morpholin-4-yl]-2-deuterio-quinoline-8-carbonitrile]", "IC50": 17}
{"smiles": "Cc1ccc(N2C[C@H](CN3CCN(c4ccnc(N5CCN[C@@H](C)C5)n4)CC3)O[C@H](C)C2)c2nccnc12", "note": "[Example 127, (2R,6S)-2-methyl-6-[[4-[2-[(3S)-3-methylpiperazin-1-yl]pyrimidin-4-yl]piperazin-1-yl]methyl]-4-(8-methylquinoxalin-5-yl)morpholine]", "IC50": 9}
{"smiles": "C[C@@H]1CN(c2ccc(C#N)n3ncc(F)c23)C[C@H](CN2CC(c3ccc(N4CC(C)(N)C4)cc3)C2)O1", "note": "[Example 160, 4-[(2S,6R)-2-[[3-[4-(3-amino-3-methyl-azetidin-1-yl)phenyl]azetidin-1-yl]methyl]-6-methyl-morpholin-4-yl]-3-fluoro-pyrazolo[1,5-a]pyridine-7-carbonitrile]", "IC50": 68}
